{
  "source": "patent US20020165216A1",
  "about": "“Cobalt-porphyrin complexes and use thereof as an anti-obesity agent” (MitoKor, priority 2000, published 2002)",
  "key": {"[1]": {"system": "SH-SY5Y neuroblastoma cells", "experiment": "Cellular assay for generation of reactive oxygen species (ROS)", "assay_type": "cell-based", "conditions": "30 minutes with test compound", "protocol": "All cell culture reagents were incubated in a water bath at 37° C. for approximately 30 minutes. Existing media from a near confluent tissue culture flask containing SH-SY5Y neuroblastoma cells was aspirated using a flame sterilized glass transfer pipette attached to a trapped vacuum apparatus. Calcium free PBS buffer was pipetted into the tissue culture flask (2 ml for a 75 cm2 flask, 3 ml for a 175 cm^2 flask). The flask was tipped slightly to ensure that the buffer covers the cell culture and then the buffer was removed by aspiration. Trypsin media was pipetted into the tissue culture flask (2 ml for a 75 cm^2 flask, 3 ml for a 175 cm^2 flask) and evenly spread to ensure that the trypsin covered the cell culture. The cell culture was incubated with trypsin media for 4-6 minutes at room temperature. After cells were released from the flask, the flask was tilted to one corner. Using the existing media within the flask, the aggregated cells were collected towards one corner and repeatedly pipetted to obtain a single cell suspension. The cell suspension was transferred with a pipette into a 15 ml conical shaped centrifuge tube then cell culture media was added to the suspension up to a total volume of 14 ml. Ten μl aliquots were withdrawn and the cells were counted using a hemocytometer. The suspension was centrifuged at 200×g for 10 minutes, the supernatant was aspirated off, and the cell pellet was resuspended at 3.75×10^5 cells/ml in cell culture medium. Two hundred μl of cell suspension were aliquoted per well in the 96 well dish to obtain a final cell number of 75,000 cells per well. The plates were incubated overnight at 37° C. and 5% CO2 in a humidified cell incubator.\nThe medium was carefully removed from the wells by aspiration with an 18 g needle. The wells were gently rinsed once with 200 μl of warm Hanks balanced saline solution (HBSS, Gibco-BRL). […]\nStock solutions of test compound, such as Co-PP, Co-MP, or a Co-P of this invention, and of an H2O2 scavenger such as ebselen, were typically prepared in dimethylformamide or dimethylsulfoxide and diluted further into working concentrations using HBSS. […] The plate was read immediately in Cytofluor model 2350 system (Millipore; excitation wavelength: 485 nm; emission wavelength: 530 nm) for a 0 min timepoint reading. The cells were incubated for 30 minutes at room temperature with test compound following which a 30 min reading was taken. The change in RMF over the 30 minutes period was calculated for each well. […] The plate was then read in the Cytofluor (excitation wavelength: 360 nm; emission wavelength: 460 nm) and the Hoechst fluorescence values were used to normalize the DCFC-DA RMF data."}, "[2]": {"target": "reduced cytochrome c (Homo sapiens, UniProt P99999)", "sequence (P99999 whole entry)": "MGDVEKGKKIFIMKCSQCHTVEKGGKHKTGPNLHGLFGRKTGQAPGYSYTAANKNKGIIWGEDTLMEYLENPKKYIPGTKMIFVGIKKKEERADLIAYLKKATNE", "experiment": "Oxidation of reduced cytochrome c by Co-PP", "assay_type": "biochemical", "conditions": "reduced cytochrome c 5.3, 10.5, 26 μM; 0-100 μM CoPP; absorbance at 550 nm", "protocol": "Reduced cytochrome c was prepared by the addition of an excess of ascorbic acid to a solution of cytochrome c and allowing the solution to stand for 5 to 10 minutes. The reduced protein was purified over a Sephadex G50 column and checked spectrophotometrically by measuring absorbance at 550 nm, followed by the addition of a few grains of dithionite and measuring absorbance again at 550 nm. […] Initial rates of oxidation of reduced cytochrome c at three concentrations (5.3 μM, 10.5 μM and 26 μM) were followed in the presence of 0, 5,10, 20 and 100 μM CoPP. Assays were conducted in 1 ml of assay buffer (20 mM potassium phosphate, pH 7.0, 0.2 mg/ml dodecyl-β-maltoside) and initiated by the addition of desired concentration of reduced cytochrome c and monitoring the change in absorbance at 550 nm for 90 seconds. The fully oxidized absorbance value was determined by the addition of a few grains of ferricyanide to the cuvette. […] In a biological system, Co-PP can transfer electrons from an electron rich donor/reductant to molecular oxygen, O2, to generate reactive oxygen species, the production of which can be toxic to cells and give rise to undesirable side effects (e.g. oxidative stress)."}, "[3]": {"conditions": "cited from earlier work"}, "[4]": {"conditions": "high doses; cited from earlier work"}, "[5]": {"conditions": "cited from earlier work", "remark": "listed apart in the source"}, "[6]": {"experiment": "Oxygen consumption catalyzed by Co-P in the presence of ascorbate/TMPD (Clark oxygen electrode)", "conditions": "2 mM ascorbate, 40 μM TMPD; for Relative Rate (oxygen consumption), effect of ligand, R5 and A moiety: Table 3", "protocol": "(Co-MP). Such activity can be readily determined by, for example, the assay disclosed in Example 16. In that assay, redox activity is measured by oxygen consumption catalyzed by a Co-P test compound in the presence of ascorbate and TMPD.\nTen mM stock solutions of a Co-P of this invention (i.e., test compound) were prepared using ethanol as solvent. KCl media consists of 125 mM KCl, 2 mM K2HPO4, 20 mM HEPES, pH 7.0. Oxygen consumption measurements were carried out using a Clark type oxygen electrode (Rank Brothers Ltd., Cambridge, UK) and assay solutions were magnetically stirred during the course of the experiments. To 500 μl of assay solution (KCl media supplemented with 2 mM sodium ascorbate and 40 μM […] (TMPD)) is added 2 μl of a stock solution of test compound (40 μM final concentration) and the oxygen consumption rate is followed for 2-4 min. Subsequently, a 5 μl aliquot of a freshly made catalase solution (100 mg/ml solution in KCl media) is added to determine if H2O2 is generated via redox cycling of the test compound.\nInitial rates are calculated from oxygen consumption slopes and rate of a solvent control is subtracted. […] An aliquot of a 10 mM stock solution of Co-MP (final concentration of 40 μM) was added to assay buffer containing 2 mM of ascorbate and 40 μM of TMPD. […] Addition of catalase results in conversion of H2O2 present in the assay solution to O2 and H2O.\nStock solutions of the test compound were at 10 mM. Aliquots of the stock solutions were added to 500 μl of assay buffer containing 2 mM of ascorbate and 40 μM of TMPD.\nRepresentative Co-P compounds of this invention were prepared by the procedures disclosed above, and assayed by the procedure of Example 16 to measure oxygen consumption catalyzed by the test compound in the presence of ascorbate/TMPD. […] The above procedure was then repeated for other representative Co-P compounds of this invention, but utilizing different ligands and/or R groups."}, "[7]": {"experiment": "Weight loss assay", "assay_type": "in vivo, Male Sprague Dawley rats", "conditions": "12 mM in vehicle, 400 μl per 100 grams body weight, subcutaneous, nuchal area, 8 days", "protocol": "(§1) Male Sprague Dawley rats (approximately 200 g) were purchased from Charles River Canada, Inc. and were shipped to the Animal Care Facility at the University of Vermont. Upon arrival they were housed in separate cages with corncob bedding and ad lib access to tap water and purina rat chow. The animal facility is maintained at a temperature of 71° F. +/− 1° F. with a 12-hour light/dark cycle, lights on at 6:00 am and off at 6:00 pm. Two days later (Day-3) all rats were shaved in the nuchal area and baseline color photographs of the nuchal area were taken (light halothane anesthesia was utilized to facilitate the shaving). Three days later (Day 0) experimental compounds were made up at 12 mM concentrations in vehicle (i.e., saline:PEG400:EtOH (5:4:1), pH 7.4). Animals were injected subcutaneously in the nuchal area with the various stock solutions at a dose of 400 μl per 100 grams body weight. Typical injection volumes, therefore, range from 1 to 1.5 ml per animal. Animals were injected using a modified Z-track technique to try and minimize outflow of injected compounds due to the high volume utilized. Each animal was weighed prior to injection and all injections were accomplished in an approximately two-hour period. No anesthesia was utilized for injections.\nAnimals subsequently underwent daily weighing with a Mettler 6 second integrating balance and had ad lib access to tap water and purina rat chow. At various intervals after injections, the nuchal area of rats was again photographed. […] The scale used was 0 for no lesions, 5 for the worst lesions with breakdown of the skin and open flow of exudates. Grades in-between were estimated by the operator based on the size and severity of the lesion. […] After 8 days, final photographs were taken and all animals were euthanized, marking the end of the experiment.\nMeans of body weights for each group were calculated and plotted over time (FIG. 9A), as were numerical means of the lesion severity index (FIG. 9B). In FIGS. 9A and 9B, C=noninjected control, V=vehicle injected control, A=Co-MP, E=Cpd. No. (1-6) and F=Cpd. No. (4-4). […] Cpd."}, "[8]": {"experiment": "Lesion severity assay (nuchal injection site)", "assay_type": "in vivo, Male Sprague Dawley rats", "conditions": "scale 0 no lesions to 5 worst lesions; 12 mM, 400 μl per 100 grams body weight, subcutaneous, nuchal area, 8 days", "protocol": "as §1, with “No anesthesia was utilized for injections.” left out\nMeans of body weights for each group were calculated and plotted over time (FIG. 9A), as were numerical means of the lesion severity index (FIG. 9B). […]"}, "[9]": {"conditions": "40 μM test compound, normalized to chloride salt of Co-MP = 1"}},
  "note": "Entries after “also recorded” stand apart in the source; their conditions may differ. Where two headings read alike, the source gives them in different places.",
  "data": [
    {"compound": "C=CC1=C(C)c2cc3[n-]c(cc4nc(cc5[n-]c(cc1n2)c(C)c5CCC(=O)[O-])C(CCC(=O)[O-])=C4C)c(C)c3C=C.[Co+2].[H+].[H+]", "note": "[Co-PP, Cobalt protoporphyrin]", "values": [
      {"measurement": "generation of reactive oxygen species (DCFC-DA fluorescence)", "setting": "[1]", "result": "reactive oxygen species were induced"},
      {"measurement": "oxidation of reduced cytochrome c", "setting": "[2]", "result": "serves as an electron acceptor from reduced cytochrome c"},
      {"measurement": "body weight", "setting": "[3]; subcutaneous administration, Zucker rats fa/fa", "result": "long-sustained reduction in body weight"},
      {"measurement": "heme oxygenase induction", "setting": "[4]", "result": "induction of heme oxygenase"},
      {"measurement": "oxidative stress", "setting": "[4]", "result": "oxidative stress has been associated with administration of high doses"},
      {"measurement": "body weight", "setting": "[5]; single subcutaneous injection", "result": "sustained decrease in body weight"},
      {"measurement": "carcass composition", "setting": "[5]; single subcutaneous injection", "result": "decreases in carcass fat content without changes in protein content"},
      {"measurement": "food intake", "setting": "[5]; single subcutaneous injection", "result": "prompt dose-dependent decrease in food intake"},
      {"measurement": "food intake and body weight effect", "setting": "[5]; smaller doses, intracerebroventricular administration", "result": "elicit the same effect"},
      {"measurement": "Relative Rate (oxygen consumption), effect of ligand, R5 and A moiety", "setting": "[6]; [9]", "result": 2.2}
    ]},
    {"compound": "cobalt mesoporphyrin [Co-MP]", "values": [
      {"measurement": "generation of reactive oxygen species (DCFC-DA fluorescence)", "setting": "[1]", "result": "reactive oxygen species were induced"},
      {"measurement": "body weight response", "setting": "[7]", "result": "greatest body weight response"},
      {"measurement": "lesion severity", "setting": "[8]", "result": "greatest lesion severity"},
      {"measurement": "body weight regulating effect compared with Co-PP", "setting": "[3]; rat, in vivo", "result": "comparable biological profile"},
      {"measurement": "Relative Rate (oxygen consumption), effect of ligand", "setting": "[6]; Table 1, Co-MP with L1 = L2 varied, 40 μM test compound, normalized to chloride salt of Co-MP = 1", "result": "1 (assigned value)"},
      {"measurement": "Relative Rate (oxygen consumption), effect of ligand and R5 moiety", "setting": "[6]; Table 2, 40 μM test compound, normalized to chloride salt of Co-MP = 1", "result": "1 (assigned value)"},
      {"measurement": "Relative Rate (oxygen consumption), effect of ligand, R5 and A moiety", "setting": "[6]; [9]", "result": "1 (assigned value)"},
      {"measurement": "Relative Rate (oxygen consumption), effect of ligand, R5, A and n moiety", "setting": "[6]; Table 4, 40 μM test compound, normalized to chloride salt of Co-MP = 1", "result": "1.0 (assigned"},
      {"measurement": "O2 consumption / redox cycling (in words)", "setting": "[6]; cell free ascorbate/TMPD system", "result": "immediate depletion of dissolved O2; also recorded: triggers robust consumption of O2"}
    ]}
  ]
}
